Patent US20250066840A1, “Single-cell RNA sequencing analysis pipeline for predicting cell sensitivities to various drugs” (Regents of the University of Minnesota, priority 2023, published 2025)
Like-named read-outs stand apart in the source and are kept apart here.

Assays:
[1] = tested on: PDAC organoids; conditions: Shinkawa T et al, 2022; cited from earlier work
[2] = tested on: CFPAC1 cells; conditions: Raghavan et al., 2021; cited from earlier work
[3] = tested on: docetaxel resistant DU145 cells; experiment: WST-1 cell viability, docetaxel-resistant DU145 cells; assay type: cell-based; conditions: for IC50: docetaxel resistant DU145 cells, 72-hour drug exposure, WST-1, read-out: mean half maximal inhibitory concentration (IC50)
Protocol: A DU145 prostate cancer cell line was obtained from American Type Culture […] (ATCC) and cultured in RPMI 1640 medium (Thermo Fisher Scientific), supplemented with 10% fetal bovine serum (FBS) (Gibco, Thermo Fisher Scientific) and maintained at 37° C. with 5% CO2. A docetaxel-resistant cell line model for DU145 was established by chronically exposing the parent cell line to stepwise increasing concentrations of docetaxel as previously described(41,42). Both cell lines were periodically monitored for mycoplasma using the Universal Mycoplasma Detection Kit following the manufacturer's protocol (A TCC). In vitro drug screening in both the docetaxei-resistant and control DU145 nodels was performed using either vemurafenib (PLX4032; CAS No. 918504-65-1) or docetaxel (RP-56976; CAS No. 114977-28-5) obtained from MedChem Express (Monmriouth Junction NJ, USA) dissolved in dimethylsulfoxide (DMSO) to obtain stock concentrations of 100 mM for vemurafenib or 5 mM for docetaxel.
(§1) Docetaxel-resistant and control DU145 cells were trypsinized, harvested, counterstained with Hoechst 33342 Fluorescent Stain (Thermo Scientific, Pierce Biotechnology, Rockford, IL) and resuspended in full growth media to 5×10^4 cells per mL prior to plating in 96-well microplates (Thermo Scientific) using a seeding density of 5×10^3 cells per well and allowed to attach for 24 hours. Following incubation, cells were treated with different concentrations of either docetaxel ranging from 0.92 nM to 6 uM, or vemurafenib ranging from 2.5 uM to 50 uM. Cell viability for each well was measured following a 72-hour drug exposure using the WST-1 assay [(Roche Applied. Science, Penzberg, Upper Bavaria, Germany) following the manufacturer's protocol. Absorbance at the 450 nm wavelength was assessed using the Synergy HTX Multi-Mode Plate Reader (BioTek, Winooski, VT)]. Absorbance values for each well were used to calculate percent viability relative to the no drug condition. […]

[4] = tested on: mesoderm-like cells; conditions: RMS oPDX, Patel et al., 2022; cited from earlier work
[5] = patients, cited from earlier work
[6] = tested on: docetaxel sensitive DU145 cells; experiment: WST-1 cell viability, docetaxel-sensitive (control) DU145 cells; assay type: cell-based; conditions: Homo sapiens, DU-145, 72-hour drug exposure
Protocol: A DU145 prostate cancer cell line was obtained from American Type Culture […] (ATCC) and cultured in RPMI 1640 medium (Thermo Fisher Scientific), supplemented with 10% fetal bovine serum (FBS) (Gibco, Thermo Fisher Scientific) and maintained at 37° C. with 5% CO2. A docetaxel-resistant cell line model for DU145 was established by chronically exposing the parent cell line to stepwise increasing concentrations of docetaxel as previously described(41,42). Both cell lines were periodically monitored for mycoplasma using the Universal Mycoplasma Detection Kit following the manufacturer's protocol (A TCC). […]
as §1, with “Following incubation, cells were treated with different concentrations of either docetaxel ranging from 0.92 nM to 6 uM, or vemurafenib ranging from 2.5 uM to 50 uM.” left out, “VT)].” for “VT)]. Absorbance values for each well were used to calculate percent viability relative to the no drug condition.”

Compound: Nc1ccn([C@@H]2O[C@H](CO)[C@@H](O)C2(F)F)c(=O)n1 [Gemcitabine]
- response of basal-like vs classical-like PDAC organoids [1]: higher resistance

Compound: CC(=O)O[C@H]1C(=O)[C@@]2(C)[C@H]([C@H](OC(=O)c3ccccc3)[C@]3(O)C[C@H](OC(=O)[C@H](O)[C@@H](NC(=O)c4ccccc4)c4ccccc4)C(C)=C1C3(C)C)[C@]1(OC(C)=O)CO[C@@H]1C[C@@H]2O [Paclitaxel]
- response of CFPAC1 cells grown in complete classical organoid media [2]: responsive

Compound: CCc1c2c(nc3ccc(O)cc13)-c1cc3c(c(=O)n1C2)COC(=O)[C@]3(O)CC [SN-38]
- response of CFPAC1 cells grown in complete classical organoid media [2]: responsive

Compound: CC(=O)O[C@@]12CO[C@@H]1C[C@H](O)[C@@]1(C)C(=O)[C@H](O)C3=C(C)[C@@H](OC(=O)[C@H](O)[C@@H](NC(=O)OC(C)(C)C)c4ccccc4)C[C@@](O)([C@@H](OC(=O)c4ccccc4)[C@H]21)C3(C)C [docetaxel]
- percent viability, resistant vs sensitive DU145 cells ([3]; docetaxel exposure, FIG. 9, two-way ANOVA): higher resistance

Compound: CCc1c2c(nc3ccc(OC(=O)N4CCC(N5CCCCC5)CC4)cc13)-c1cc3c(c(=O)n1C2)COC(=O)[C@]3(O)CC [irinotecan]
- response of mesoderm-like cells compared to myoblast cells [4]: highly resistant

Compound: CCCS(=O)(=O)Nc1ccc(F)c(C(=O)c2c[nH]c3ncc(-c4ccc(Cl)cc4)cc23)c1F [vemurafenib]
- IC50 ([3]; Homo sapiens, DU-145, 72 h): 12.8 µM
- IC50 [3]: 12.9 µM
- average maximum serum concentration (Cmax) ([5]; previous trial (Zhang W et al., 2017)): 61.4 µg/mL
- average maximum serum concentration (Cmax) ([5]; previous trial, equivalent of 61.4 μg/mL): 125.3 μM/L
- tolerability at Cmax ([5]; previous trial): well tolerated
- IC50 [6]: 27.9 µM
